Results taken from patent US12516038B2, “Inhibitors of antigen presentation by HLA-DR” (Janssen Pharmaceutica NV, priority 2020, dated 2026).

Tests used:
HLA-DRB1*0401 = HLA-DRB1*0401 (Homo sapiens (Human), UniProt P01903+P01911, A100K/A169T/DEL228-266/F76Y/I96L/K127E/L162R/M171V/N62H/P40V/Q125Y/R42H/S133A/S149N/S66Y/V115G/V209L/W38E); assay: HLA-DR4 HTRF assay; format: binding; details: inhibition of loading of Alexa Fluor 647-labeled Cit-CII peptide onto HLA-DR4 (CLIP cleaved)
How it was run: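 HLA-DRB1*04:01 construct (α/β fused to human Fc, CLIP pre-cleaved by HRV3C overnight at 4° C) at 3 nM was preincubated 45 min with compound and 1 nM anti-Fc-Tb donor, then 40 nM Alexa647-Cit-CII1236-1249 peptide added. After 90 min at 37° C, the 665/620 nm HTRF ratio gave % inhibition; IC50 by nonlinear regression.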

[1] = system: HLA-DR4 restricted mouse T cell hybridoma line (DR4.CII.36.8) with HLA-DRB1*04:01-expressing Boleth cells; assay: HLA-DR4-restricted peptide-specific T cell-based assay (hybridoma assay); details: Mus musculus, T-cell, 6 h, inhibition of IL-2 production, CII259-273 peptide presented by Boleth cells
How it was run: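 IC50 values derive from 4-parameter logistic fits of IL-2 AlphaLISA signal over 8-point duplicate titrations. Compound and HLA-DRB1*04:01 Boleth APCs were preincubated 1 h, 37° C., before adding CII259-273-restricted DR4.CII.36.8 hybridoma cells with peptide for 6 h at 37° C., in DMEM/1% FCS.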

[2] = system: human peripheral blood CD4+ helper T cells; assay: Pan-CD4+ T cell activation (off-target assay); format: cell-based; details: Homo sapiens, T-cell, 24 h, anti-CD3/anti-CD28 stimulation, IL-2 production by ELISA
Text: The counter-screening was made through an HLA-DR-independent assay (Pan-CD4+ T cell activation assay), i.e., TCR-stimulated pan-T cell activation assay, and consists of activating T cell directly with agonistic antibody targeting the T cell receptor. The lack of inhibition in the counter-screening assay reflects that the inhibition of T cell activation in the HLA-DR4 restricted peptide-specific T cell based assay with the small molecule inhibitors is due to impaired antigen presentation on HLA-DR to the T cell and not due to a direct inhibition of the T cell function by an off-target mechanism (i.e., independently of targeting HLA-DR).
Pan-CD4+ T Cell Activation
Compounds were tested using a pan-T cell activation assay. In this assay, anti-human CD3 antibody (BD Pharmingen #55336) pre-coated at 1 μg/mL to a 96-well assay plate and 1 μg/ml soluble anti-human CD28 (EBioscience #16-0289-85) antibody were used for activating human peripheral blood CD4+ helper T cells (no HLA-DR-expressing APC were present in this assay format), in the presence of compounds (or vehicle control) for 24 hrs. IL-2 production was measured in the culture supernatant by ELISA (Human IL-2 Duo Set ELISA #DY202 from R&D Systems).

| SMILES | IC50 (HLA-DRB1*0401) | IC50 [1] | IC50 [2] |
| --- | --- | --- | --- |
| O=C1CCOc2cc(OC(c3ccccc3)c3cccnc3)ccc21 (racemic) [Example 115, (R,S)-7-(Phenyl(pyridin-3-yl)methoxy)chroman-4-one] | 5 µM | 12 µM | 15 µM |
| CCC1COc2cc(OCc3ccncc3)ccc2C1=O (racemic) [Example 120, (R,S)-3-Ethyl-7-(pyridin-4-ylmethoxy)chroman-4-one] | 1.2 µM | 5.1 µM | > 15 µM |
| Cc1c(OC2CCc3cc(C(N)=O)ccc32)ccc2c1OCCC2=O (racemic) [Example 121, (R,S)-1-((8-Methyl-4-oxochroman-7-yl)oxy)-2,3-dihydro-1H-indene-5-carboxamide] | 0.63 µM | 8.1 µM | > 15 µM |
| O=C1CCOc2cc(O[C@H](c3ccncc3)c3ccccc3F)ccc21 (single isomer, unassigned) [Example 1a, (*R)-7-((2-Fluorophenyl)(pyridin-4-yl)methoxy)chroman-4-one] | 1 µM | 3.4 µM | > 15 µM |
| O=C1CCOc2cc(O[C@@H](c3ccncc3)c3ccccc3F)ccc21 (single isomer, unassigned) [Example 1b, (*S)-7-((2-Fluorophenyl)(pyridin-4-yl)methoxy)chroman-4-one] | 1.2 µM | 3.1 µM | 3.1 µM |
| O=C1CCOc2cc(O[C@H](c3ccncc3)c3cccc(F)c3)ccc21 (single isomer, unassigned) [Example 2a, (*R)-7-((3-Fluorophenyl)(pyridin-4-yl)methoxy)chroman-4-one] | 1.6 µM | 1.7 µM | 15 µM |
| O=C1CCOc2cc(O[C@@H](c3ccncc3)c3cccc(F)c3)ccc21 (single isomer, unassigned) [Example 2b, (*S)-7-((3-Fluorophenyl)(pyridin-4-yl)methoxy)chroman-4-one] | 1.8 µM | 3.9 µM | > 15 µM |
| O=C1CCOc2cc(O[C@@H](c3ccncc3)c3ccc(F)cc3)ccc21 (single isomer, unassigned) [Example 3a, (*R)-7-((4-Fluorophenyl)(pyridin-4-yl)methoxy)chroman-4-one] | 1.6 µM | 4.2 µM | 15 µM |
| O=C1CCOc2cc(O[C@H](c3ccncc3)c3ccc(F)cc3)ccc21 (single isomer, unassigned) [Example 3b, (*S)-7-((4-Fluorophenyl)(pyridin-4-yl)methoxy)chroman-4-one] | 1.3 µM | 2.1 µM | > 15 µM |
| COc1ccc(COc2cccc([C@H](Oc3ccc4c(c3)OCCC4=O)c3ccncc3)c2)cc1 (single isomer, unassigned) [Example 4a, (*R)-7-((3-((4-Methoxybenzyl)oxy)phenyl)(pyridin-4-yl)methoxy)chroman-4-one] | 6.9 µM | 2.9 µM | 7.8 µM |
| COc1ccc(COc2cccc([C@@H](Oc3ccc4c(c3)OCCC4=O)c3ccncc3)c2)cc1 (single isomer, unassigned) [Example 4b, (*S)-7-((3-((4-Methoxybenzyl)oxy)phenyl)(pyridin-4-yl)methoxy)chroman-4-one] | 7.9 µM | 2.6 µM | 15 µM |
| O=C1CCOc2cc(O[C@H](c3ccncc3)c3cccc(O)c3)ccc21 (single isomer, unassigned) [Example 5a, (*R)-7-((3-Hydroxyphenyl)(pyridin-4-yl)methoxy)chroman-4-one] | 14 µM | 1.9 µM | 2.8 µM |
| N#Cc1ccccc1[C@H](Oc1ccc2c(c1)OCCC2=O)c1ccncc1 (single isomer, unassigned) [Example 7a, (*R)-2-(((4-Oxochroman-7-yl)oxy)(pyridin-4-yl)methyl)benzonitrile] | 0.69 µM | 4.6 µM | 4.4 µM |
| NC(=O)c1cccc([C@@H](Oc2ccc3c(c2)OCCC3=O)c2ccncc2)c1 (single isomer, unassigned) [Example 9a, (*R)-3-(((4-oxochroman-7-yl)oxy)(pyridin-4-yl)methyl)benzamide] | 0.92 µM | 6.3 µM | 4.7 µM |
| NC(=O)c1cccc([C@H](Oc2ccc3c(c2)OCCC3=O)c2ccncc2)c1 (single isomer, unassigned) [Example 9b, (*S)-3-(((4-oxochroman-7-yl)oxy)(pyridin-4-yl)methyl)benzamide] | 0.98 µM | 11 µM | 4.7 µM |
| N#Cc1ccc([C@@H](Oc2ccc3c(c2)OCCC3=O)c2ccncc2)cc1 (single isomer, unassigned) [Example 10a, (*R)-4-(((4-oxochroman-7-yl)oxy)(pyridin-4-yl)methyl)benzonitrile] | 0.95 µM | 4.9 µM | > 15 µM |
| NC(=O)c1ccc([C@@H](Oc2ccc3c(c2)OCCC3=O)c2ccncc2)cc1 (single isomer, unassigned) [Example 11a, (*R)-4-(((4-oxochroman-7-yl)oxy)(pyridin-4-yl)methyl)benzamide] | 0.72 µM | 0.46 µM | > 15 µM |
| NC(=O)c1ccc([C@H](Oc2ccc3c(c2)OCCC3=O)c2ccncc2)cc1 (single isomer, unassigned) [Example 11b, (*S)-4-(((4-oxochroman-7-yl)oxy)(pyridin-4-yl)methyl)benzamide] | 0.95 µM | 4.7 µM | > 15 µM |
| COc1ccc([C@@H](Oc2ccc3c(c2)OCCC3=O)c2ccncc2)cc1 (single isomer, unassigned) [Example 12a, (*R)-7-((4-Methoxyphenyl)(pyridin-4-yl)methoxy)chroman-4-one] | 2 µM | 2.6 µM | 9.9 µM |
| COc1ccc([C@H](Oc2ccc3c(c2)OCCC3=O)c2ccncc2)cc1 (single isomer, unassigned) [Example 12b, (*S)-7-((4-Methoxyphenyl)(pyridin-4-yl)methoxy)chroman-4-one] | 1.7 µM | 2.9 µM | > 15 µM |
| COc1cccc([C@@H](Oc2ccc3c(c2)OCCC3=O)c2ccncc2)c1 (single isomer, unassigned) [Example 13b, (*S)-7-((3-methoxyphenyl)(pyridin-4-yl)methoxy)chroman-4-one] | 1.4 µM | 4.7 µM | > 15 µM |
| COc1ccccc1[C@H](Oc1ccc2c(c1)OCCC2=O)c1ccncc1 (single isomer, unassigned) [Example 14a, (*R)-7-((2-Methoxyphenyl)(pyridin-4-yl)methoxy)chroman-4-one] | 1.9 µM | 8.7 µM | > 15 µM |
| Cc1cc([C@H](Oc2ccc3c(c2)OCCC3=O)c2ccc(C(N)=O)cc2)ccn1 (single isomer, unassigned) [Example 15a, (*R)-4-((2-Methylpyridin-4-yl)((4-oxochroman-7-yl)oxy)methyl)benzamide] | 0.44 µM | 0.61 µM | > 15 µM |
| COc1ccc(COc2ccc([C@@H](Oc3ccc4c(c3)OCCC4=O)c3ccncc3)cc2)cc1 (single isomer, unassigned) [Example 17a, (*R)-7-((4-((4-Methoxybenzyl)oxy)phenyl)(pyridin-4-yl)methoxy)chroman-4-one] | 5.8 µM | 4.3 µM | 15 µM |
| COc1ccc(COc2ccc([C@H](Oc3ccc4c(c3)OCCC4=O)c3ccncc3)cc2)cc1 (single isomer, unassigned) [Example 17b, (*S)-7-((4-((4-Methoxybenzyl)oxy)phenyl)(pyridin-4-yl)methoxy)chroman-4-one] | 4.9 µM | 7.7 µM | 4.8 µM |
| NC(=O)c1ccc([C@H](Oc2ccc3c(c2)OCCC3=O)c2ccnc(C(F)(F)F)c2)cc1 (single isomer, unassigned) [Example 18b, (*S)-4-(((4-oxochroman-7-yl)oxy)(2-(trifluoromethyl)pyridin-4-yl)methyl)benzamide] | 0.95 µM | 12 µM | 9.9 µM |
| NC(=O)c1ccc([C@@H](Oc2ccc3c(c2)OCCC3=O)c2ccncc2C(F)(F)F)cc1 (single isomer, unassigned) [Example 19a, (*R)-4-(((4-oxochroman-7-yl)oxy)(3-(trifluoromethyl)pyridin-4-yl)methyl)benzamide] | 0.82 µM | 3.6 µM | 1.8 µM |
